# Measurements from ChEMBL document CHEMBL1131608, “Structure-activity relationships and molecular modeling of 3, 5-diacyl-2,4-dialkylpyridine derivatives as selective A3 adenosine receptor antagonists” (J Med Chem, 1998).
# Assays:
# [1] = target: T1, Adenosine receptor A3 (Homo sapiens) (UniProt P0DMS8); test: Binding affinity towards adenosine A3 receptor by measuring its ability to displace [125I]AB-MECA binding to membranes prepared from HEK293 cells; type: cell membranes
# T1 sequence (whole entry): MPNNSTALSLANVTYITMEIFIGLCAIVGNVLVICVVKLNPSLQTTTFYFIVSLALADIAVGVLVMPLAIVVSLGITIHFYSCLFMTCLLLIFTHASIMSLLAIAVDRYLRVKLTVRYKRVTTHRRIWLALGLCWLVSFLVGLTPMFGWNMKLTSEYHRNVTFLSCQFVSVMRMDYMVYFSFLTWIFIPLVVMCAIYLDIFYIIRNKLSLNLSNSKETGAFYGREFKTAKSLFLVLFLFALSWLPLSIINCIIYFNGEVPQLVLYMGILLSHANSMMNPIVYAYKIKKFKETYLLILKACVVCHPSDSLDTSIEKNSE
# [2] = target: Adenosine receptor A2a (Rattus norvegicus) (UniProt P30543); test: Binding affinity towards adenosine A2A receptor by measuring its ability to displace [3H]-CGS- 21680 in rat striatal membranes at a concentration of 10e-4 M; type: cell membranes; settings: Striatum, Membrane
# HEK293 = test: Selectivity for binding affinity towards A1 adenosine receptor in rat brain membrane and human A3 receptor expressed in HEK cells; type: cell-based
# [3] = target: T2, Adenosine receptor A1 (Rattus norvegicus) (UniProt P25099); test: Binding affinity towards adenosine A1 receptor by measuring its ability to displace [3H]-R-PIA in rat brain membranes at a concentration of 10e-4 M; type: cell membranes
# T2 sequence (whole entry): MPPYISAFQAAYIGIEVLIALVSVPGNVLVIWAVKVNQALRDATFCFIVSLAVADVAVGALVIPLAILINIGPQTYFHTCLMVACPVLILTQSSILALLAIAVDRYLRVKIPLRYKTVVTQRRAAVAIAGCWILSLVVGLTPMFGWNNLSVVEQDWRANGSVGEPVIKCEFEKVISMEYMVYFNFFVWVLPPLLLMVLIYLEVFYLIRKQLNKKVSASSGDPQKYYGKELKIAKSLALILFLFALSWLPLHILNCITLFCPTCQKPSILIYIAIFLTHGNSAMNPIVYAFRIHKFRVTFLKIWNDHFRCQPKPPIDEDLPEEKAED
# [4] = target: Adenosine receptor A2a (Rattus norvegicus) (UniProt P30543); test: Binding affinity for adenosine A2A receptor as displacement of [3H]-CGS- 21680 from rat striatal membranes at 10e-4 M; type: cell membranes; settings: Membrane
# Adenosine receptor A2a = Adenosine receptor A2a (Rattus norvegicus, UniProt P30543); test: Binding affinity for adenosine A2A receptor as displacement of [3H]-CGS- 21680 from rat striatal membranes; type: cell membranes, Membrane
# [5] = target: T1, Adenosine receptor A3 (Homo sapiens); test: Binding affinity for adenosine A3 receptor as displacement of [125I]AB-MECA from HEK293 cell membranes at 10e-4 M
# Adenosine receptor A1 = target: T3, Adenosine receptor A1 (Rattus norvegicus, UniProt P25099); test: Binding affinity for adenosine A1 receptor as displacement of [3H]R-PIA from rat brain membranes at 10e-4 M; type: cell membranes, Membrane
# T3 sequence (P25099 whole entry): T2 sequence (whole entry)
# Adenosine receptor A2a (Rattus norvegicus), sequence (P30543 whole entry): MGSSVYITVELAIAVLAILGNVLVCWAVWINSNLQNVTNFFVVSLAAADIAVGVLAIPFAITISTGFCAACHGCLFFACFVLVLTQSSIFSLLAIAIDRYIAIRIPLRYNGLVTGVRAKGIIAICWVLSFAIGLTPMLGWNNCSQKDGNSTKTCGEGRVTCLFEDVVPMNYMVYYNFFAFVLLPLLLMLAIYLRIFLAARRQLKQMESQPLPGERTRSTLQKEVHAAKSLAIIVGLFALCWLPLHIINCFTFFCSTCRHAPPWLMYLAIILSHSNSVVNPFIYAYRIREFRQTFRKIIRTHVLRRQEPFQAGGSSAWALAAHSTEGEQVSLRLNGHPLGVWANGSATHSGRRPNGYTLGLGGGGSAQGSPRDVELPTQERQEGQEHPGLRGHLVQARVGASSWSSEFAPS
# Adenosine receptor A2a, sequence (P30543 whole entry): as above
Compound,Ki [1] [nM],inhibition [2] [%],Ratio (HEK293),inhibition [3] [%],inhibition [4] [%],Ki (Adenosine receptor A2a) [nM],inhibition [5] [%],Ki (Adenosine receptor A1) [nM]
CCOC(=O)c1c(C)nc(-c2ccccc2)c(C(=O)OCC)c1CC,176,3.69,19,3.36,,,,
CCCc1nc(-c2ccccc2)c(C(=O)OCC)c(CC)c1C(=O)SCC,33.3,2.82,500,16.7,,,,
CCOC(=O)c1c(-c2ccccc2)nc(C)c(C(=O)SCC)c1CC,143,14.9,340,14.8,,,,
CCOC(=O)c1c(C)nc(-c2ccccc2)c(C(=O)OCC)c1C(OC)OC,783,2.88,2.5,1.95,,,,
CCOC(=O)C1=C(c2ccccc2)N=C(C)/C(=C(/O)SCC)C1CC (stereo not given),,54.8,,35.4,,,,
CCOC(=O)c1c(C)nc(C2CCCC2)c(C(=O)OCc2ccccc2)c1C#Cc1ccccc1,,,15,,,,,
CCOC(=O)c1c(C)nc(C2CCC2)c(C(=O)OCc2ccccc2)c1C#Cc1ccccc1,,,,< 10,,,,
CCOC(=O)C1=C(c2ccccc2)N=C(C)/C(=C(/O)OCC)C1C=O (stereo not given),15600,32,6,26,,,,
CCOC(=O)C1=C(c2ccccc2)N=C(C)/C(=C(/O)SCCOC)C1CC (stereo not given),4580,,> 10,36,12.5,,,
CCOC(=O)C1=C(C)NC(C2CCC2)=C(C(=O)OCc2ccccc2)C1C#Cc1ccccc1 (stereo not given),,,,36,10,,,
CCCSC(=O)c1c(CC)nc(-c2ccccc2)c(C(=O)OCC)c1CC,15.9,15.7,520,8.22,,,,
CCO/C(O)=C1\C(C)=NC(c2ccccc2)=C(C(=O)OCc2ccccc2)C1C#Cc1ccccc1 (stereo not given),,< 10,,,,,,
CCCC1=NC(c2ccccc2)=C(C(=O)OCC)C(CC)/C1=C(\O)SCC (stereo not given),2090,< 10,> 20,26,,,,
CCOC(=O)C1=C(c2ccccc2)N=C(C)/C(=C(/O)OCC)C1/C=C/c1ccccc1 (stereo not given),,4.77,,,,,,
CCS/C(O)=C1\C(C)=NC(c2ccccc2)=C(C(=O)OCc2ccccc2)C1CC (stereo not given),1650,,> 50,45,14.3,,,
CCOC(=O)C1=C(C)NC(C2CCCCC2)=C(C(=O)OCc2ccccc2)C1C#Cc1ccccc1 (stereo not given),,,,22,20,,,
CCCCc1nc(-c2ccccc2)c(C(=O)OCC)c(CC)c1C(=O)SCC,35,< 10,1200,40.3,,,,
CCOC(=O)C1=C(C)NC(C2CCCC2)=C(C(=O)OCc2ccccc2)C1C#Cc1ccccc1 (stereo not given),,,340,,,,,
CCOC(=O)c1c(C)nc(-c2ccccc2)c(C(=O)OCc2ccccc2)c1C#Cc1ccccc1,,,4.2,,,43000,2.75,
CCCOC(=O)c1c(C)nc(-c2ccccc2)c(C(=O)OCC)c1C,215,24.5,23,5.05,,,,
CCOC(=O)c1c(C)nc(-c2ccccc2)c(C(=O)OCC)c1C,,28.4,,,,,,
CCOC(=O)C1=C(c2ccccc2)N=C(CC)/C(=C(/O)SCC)C1CC (stereo not given),907,29.1,> 50,34,,,,

Compound,Ki [1] [nM],inhibition [2] [%],Ratio (HEK293),inhibition [3] [%],inhibition [4] [%],Ki (Adenosine receptor A2a) [nM],inhibition [5] [%],Ki (Adenosine receptor A1) [nM]
CCOC(=O)c1c(C)nc(-c2ccccc2)c(C(=O)OCC)c1C=O,1980,2.56,4.8,9.56,,,,
CCSC(=O)c1c(C)nc(-c2ccccc2)c(C(=O)Oc2ccccc2)c1CC,2610,12.8,> 40,20,,,,
CCOC(=O)c1c(-c2ccccc2)nc(CC)c(C(=O)O)c1CC,1280,7.09,3.3,4.25,,,,
CCCC1C(C(=O)OCC)=C(c2ccccc2)N=C(C)/C1=C(/O)SCC (stereo not given),,,,48,29,,,
CCOC(=O)C1=C(c2ccccc2)N=C(C)/C(=C(/O)OCC)C1C(OC)OC (stereo not given),15300,< 10,> 5,32,,,,
CCCc1c(C(=O)SCC)c(C)nc(-c2ccccc2)c1C(=O)OCC,194,7.53,> 700,29,,,,
CCCOC(=O)c1c(-c2ccccc2)nc(CC)c(C(=O)SCC)c1CC,8.29,< 10,940,7.77,,,,
CCOC(=O)c1c(-c2ccccc2)nc(C2CCC2)c(C(=O)SCC)c1CC,145,22,> 500,30,,,,
CCOC(=O)C1=C(c2ccccc2)N=C(CC)/C(=C(/O)OCC)C1C (stereo not given),,,,20,< 10,,,
CCOC(=O)c1c(C2CCCC2)nc(CC)c(C(=O)SCC)c1CC,3380,26.1,16,55.3,,,,
CCCOC(=O)c1c(-c2ccccc2)nc(CC)c(C(=O)SCC)c1CCC,18.9,2.05,830,15.6,,,,
CCOC(=O)C1=C(C)NC(C2CC2)=C(C(=O)OCc2ccccc2)C1C#Cc1ccccc1 (stereo not given),,,,22,10,,,
CCOC(=O)c1c(CC)nc(-c2ccccc2)c(C(=O)OCC)c1C,121,13.4,85,10.3,,,,
CNC(=O)[C@H]1O[C@@H](n2cnc3c(NCc4ccc(N)c(I)c4)ncnc32)[C@H](O)[C@@H]1O,,,,,,,,3.4
CCOC(=O)c1c(-c2cccc(Cl)c2)nc(CC)c(C(=O)SCC)c1CC,13.4,8.91,610,8.2,,,,
CCSC(=O)c1c(CC)nc(-c2ccccc2)c(C(=O)OCCO)c1CC,188,10,93,17.4,,,,
CCOC(=O)c1c(-c2ccccc2)nc(CCOC)c(C(=O)SCC)c1CC,16.8,12.6,600,10.1,,,,
CCOC(=O)C1=C(c2ccccc2)N=C(C)/C(=C(/O)OCC)C1CC (stereo not given),,,,,,21800,,
CCOC(=O)c1c(-c2ccccc2)nc(CC)c(C(=O)SCC)c1CC,20,6.13,> 3000,41,,,,
CCCOC(=O)c1c(-c2cccc(Cl)c2)nc(CC)c(C(=O)SCCC)c1CC,7.94,24.1,5200,41.4,,,,
CCOC(=O)c1c(-c2ccccc2)nc(C)c(C(=O)SCCOC)c1CC,165,7.98,> 500,36,,,,
